Experimental data taken from ChEMBL document CHEMBL1152321, “Recent advances in the chemistry and biology of new generation taxoids” (J Nat Prod, 2009).

Tests used:
[1] = Cytotoxicity against P-glycoprotein deficient wild type human LCC-6 cells after 72 hrs; type: functional, cell-based; details: LCC-6, 72 h
[2] = Resistance factor, ratio of IC50 for human LCC-6 cells expressing P-glycoprotein to IC50 for P-glycoprotein deficient wild type human LCC-6 cells; type: functional; parameters: reference not given here
MCF7 [3] = experiment: Resistance factor, ratio of IC50 for P-glycoprotein deficient wild type human MCF7 cells to IC50 for multidrug-resistant human NCI/ADR cells; type: functional
[4] = Cytotoxicity against human LCC-6 cells expressing P-glycoprotein after 72 hrs; type: functional, cell-based; details: LCC-6, 72 h
MCF7 [5] = experiment: Cytotoxicity against P-glycoprotein deficient wild type human MCF7 cells after 72 hrs; type: functional, cell-based; details: MCF7, 72 h
MCF7 [6] = experiment: Cytotoxicity against human MCF7 cells expressing P-glycoprotein after 72 hrs; type: functional, cell-based; details: MCF7, 72 h
MCF7 [7] = experiment: Resistance factor, ratio of IC50 for human MCF7 cells expressing P-glycoprotein to IC50 for P-glycoprotein deficient wild type human MCF7 cells; type: functional
NCI-H460 = experiment: Cytotoxicity against human H460 cells after 72 hrs; type: functional, cell-based; details: NCI-H460, 72 h
HT-29 = experiment: Cytotoxicity against human HT-29 cells after 72 hrs; type: functional, cell-based; details: HT-29, 72 h

Structure (SMILES) | IC50 [1] [nM] | Ratio [2] | Ratio (MCF7 [3]) | IC50 [4] [nM] | IC50 (MCF7 [5]) [nM] | IC50 (MCF7 [6]) [nM] | Ratio (MCF7 [7]) | IC50 (NCI-H460) [nM] | IC50 (HT-29) [nM]
COC(=O)O[C@H]1C(=O)[C@@]2(C)[C@H]([C@H](OC(=O)c3cccc(OC)c3)[C@]3(O)C[C@H](OC(=O)[C@H](O)[C@H](C=C(C)C)NC(=O)OC(C)(C)C)C(C)=C1C3(C)C)[C@]1(OC(C)=O)CO[C@@H]1C[C@@H]2O | 0.6 | 2.7 | 3.5 |  |  |  |  |  | 
C=CC[C@H](NC(=O)OC(C)(C)C)[C@@H](O)C(=O)O[C@H]1C[C@@]2(O)[C@@H](OC(=O)c3cccc(OC)c3)[C@@H]3[C@]4(OC(C)=O)CO[C@@H]4C[C@H](O)[C@@]3(C)C(=O)[C@H](OC(=O)CC)C(=C1C)C2(C)C | 1.2 | 7 | 10.9 |  |  |  |  |  | 
CCC(=O)O[C@H]1C(=O)[C@@]2(C)[C@H]([C@H](OC(=O)c3cccc(OC)c3)[C@]3(O)C[C@H](OC(=O)[C@H](O)[C@H](CC(C)C)NC(=O)C4CCCCC4)C(C)=C1C3(C)C)[C@]1(OC(C)=O)CO[C@@H]1C[C@@H]2O | 1 | 12 | 9.3 |  |  |  |  |  | 
CCC(=O)O[C@H]1C(=O)[C@@]2(C)[C@H]([C@H](OC(=O)c3ccccc3)[C@]3(O)C[C@H](OC(=O)[C@H](O)[C@H](C=C(C)C)NC(=O)OC4CCCCC4)C(C)=C1C3(C)C)[C@]1(OC(C)=O)CO[C@@H]1C[C@@H]2O | 1.2 | 13 | 6.4 |  |  |  |  |  | 
CCC(=O)O[C@H]1C(=O)[C@@]2(C)[C@H]([C@H](OC(=O)c3ccccc3)[C@]3(O)C[C@H](OC(=O)[C@H](O)[C@H](C=C(C)C)NC(=O)C4=CCCCC4)C(C)=C1C3(C)C)[C@]1(OC(C)=O)CO[C@@H]1C[C@@H]2O | 1.2 | 9.2 | 13 |  |  |  |  |  | 
CCC(=O)O[C@H]1C(=O)[C@@]2(C)[C@H]([C@H](OC(=O)c3ccccc3)[C@]3(O)C[C@H](OC(=O)[C@H](O)[C@H](CC(C)C)NC(=O)C4CCCCC4)C(C)=C1C3(C)C)[C@]1(OC(C)=O)CO[C@@H]1C[C@@H]2O | 5.8 | 5.5 | 13 |  |  |  |  |  | 
CCC(=O)O[C@H]1C(=O)[C@@]2(C)[C@H]([C@H](OC(=O)c3cccc(OC)c3)[C@]3(O)C[C@H](OC(=O)[C@H](O)[C@H](C=C(C)C)NC(=O)C4CCCC4)C(C)=C1C3(C)C)[C@]1(OC(C)=O)CO[C@@H]1C[C@@H]2O | 1.1 | 10 | 32 |  |  |  |  |  | 
COc1cccc(C(=O)O[C@H]2[C@@H]3[C@]4(OC(C)=O)CO[C@@H]4C[C@H](O)[C@@]3(C)C(=O)[C@H](OC(=O)c3ccccc3OC)C3=C(C)[C@@H](OC(=O)[C@H](O)[C@H](C=C(C)C)NC(=O)OC(C)(C)C)C[C@]2(O)C3(C)C)c1 | 0.4 | 2.3 | 3 |  |  |  |  |  | 
CCC(=O)O[C@H]1C(=O)[C@@]2(C)[C@H]([C@H](OC(=O)c3ccccc3)[C@]3(O)C[C@H](OC(=O)[C@H](O)[C@H](C=C(C)C)NC(=O)C4=CCCC4)C(C)=C1C3(C)C)[C@]1(OC(C)=O)CO[C@@H]1C[C@@H]2O | 1.2 | 12 | 15 |  |  |  |  |  | 
CCC(=O)O[C@H]1C(=O)[C@@]2(C)[C@H]([C@H](OC(=O)c3cccc(OC)c3)[C@]3(O)C[C@H](OC(=O)[C@H](O)[C@H](C=C(C)C)NC(=O)OC4CCCCC4)C(C)=C1C3(C)C)[C@]1(OC(C)=O)CO[C@@H]1C[C@@H]2O | 1.23 | 12 | 9.7 |  |  |  |  |  | 
CCC(=O)O[C@H]1C(=O)[C@@]2(C)[C@H]([C@H](OC(=O)c3ccccc3)[C@]3(O)C[C@H](OC(=O)[C@H](O)[C@H](C=C(C)C)NC(=O)C4CCCC4)C(C)=C1C3(C)C)[C@]1(OC(C)=O)CO[C@@H]1C[C@@H]2O | 1.1 | 17 | 20 |  |  |  |  |  | 
CCC(=O)O[C@H]1C(=O)[C@@]2(C)[C@H]([C@H](OC(=O)c3ccccc3)[C@]3(O)C[C@H](OC(=O)[C@H](O)[C@H](CC(C)C)NC(=O)OC4CCCCC4)C(C)=C1C3(C)C)[C@]1(OC(C)=O)CO[C@@H]1C[C@@H]2O | 4.8 | 3.8 | 10 |  |  |  |  |  | 
CCC(=O)O[C@H]1C(=O)[C@@]2(C)[C@H]([C@H](OC(=O)c3cccc(OC)c3)[C@]3(O)C[C@H](OC(=O)[C@H](O)[C@H](CC(C)C)NC(=O)C4CC4)C(C)=C1C3(C)C)[C@]1(OC(C)=O)CO[C@@H]1C[C@@H]2O | 0.6 | 22 | 30 |  |  |  |  |  | 
CCC(=O)O[C@H]1C(=O)[C@@]2(C)[C@H]([C@H](OC(=O)c3ccccc3)[C@]3(O)C[C@H](OC(=O)[C@H](O)[C@H](C=C(C)C)NC(=O)OC(C)(C)C)C(C)=C1C3(C)C)[C@]1(OC(C)=O)CO[C@@H]1C[C@@H]2O |  |  | 22 |  |  |  |  |  | 
COc1cccc(C(=O)O[C@H]2[C@@H]3[C@]4(OC(C)=O)CO[C@@H]4C[C@H](O)[C@@]3(C)C(=O)[C@H](OC(=O)N(C)C)C3=C(C)[C@@H](OC(=O)[C@H](O)[C@@H](NC(=O)OC(C)(C)C)C(F)F)C[C@]2(O)C3(C)C)c1 | 0.69 | 10 |  | 7.06 | 0.45 | 4.51 | 10 | 0.4 | 0.43
CC(=O)O[C@@]12CO[C@@H]1C[C@H](O)[C@@]1(C)C(=O)[C@H](OC(=O)N(C)C)C3=C(C)[C@@H](OC(=O)[C@H](O)[C@@H](NC(=O)OC(C)(C)C)C(F)(F)F)C[C@@](O)([C@@H](OC(=O)c4cccc(N=[N+]=[N-])c4)[C@H]21)C3(C)C | 1.27 | 2.8 |  | 3.52 | 0.47 | 2.61 | 5.6 | 0.3 | 0.5
CC(=O)O[C@@]12CO[C@@H]1C[C@H](O)[C@@]1(C)C(=O)[C@H](OC(=O)N(C)C)C3=C(C)[C@@H](OC(=O)[C@H](O)[C@@H](NC(=O)OC(C)(C)C)C(F)(F)F)C[C@@](O)([C@@H](OC(=O)c4cccc(F)c4)[C@H]21)C3(C)C | 0.32 | 17 |  | 5.57 | 0.32 | 2.64 | 8.3 | 0.5 | 0.76
COc1cccc(C(=O)O[C@H]2[C@@H]3[C@]4(OC(C)=O)CO[C@@H]4C[C@H](O)[C@@]3(C)C(=O)[C@H](OC(C)=O)C3=C(C)[C@@H](OC(=O)[C@H](O)[C@@H](NC(=O)OC(C)(C)C)C(F)(F)F)C[C@]2(O)C3(C)C)c1 | 0.33 | 12 |  | 3.99 | 0.32 | 8.8 | 28 | 0.38 | 0.69
COC(=O)O[C@H]1C(=O)[C@@]2(C)[C@H]([C@H](OC(=O)c3cccc(N=[N+]=[N-])c3)[C@]3(O)C[C@H](OC(=O)[C@H](O)[C@@H](NC(=O)OC(C)(C)C)C(F)F)C(C)=C1C3(C)C)[C@]1(OC(C)=O)CO[C@@H]1C[C@@H]2O | 0.26 | 7.9 |  | 2.06 | 1.69 | 2.56 | 1.5 | 0.23 | 0.36
CC(=O)O[C@H]1C(=O)[C@@]2(C)[C@H]([C@H](OC(=O)c3cccc(N=[N+]=[N-])c3)[C@]3(O)C[C@H](OC(=O)[C@H](O)[C@@H](NC(=O)OC(C)(C)C)C(F)F)C(C)=C1C3(C)C)[C@]1(OC(C)=O)CO[C@@H]1C[C@@H]2O | 0.22 | 7.1 |  | 1.57 | 0.32 | 1.68 | 5.3 | 0.48 | 0.57
CCC(=O)O[C@H]1C(=O)[C@@]2(C)[C@H]([C@H](OC(=O)c3ccccc3)[C@]3(O)C[C@H](OC(=O)[C@H](O)[C@H](CC(C)C)NC(=O)OC(C)(C)C)C(C)=C1C3(C)C)[C@]1(OC(C)=O)CO[C@@H]1C[C@@H]2O |  |  | 15 |  |  |  |  |  | 
COC(=O)O[C@H]1C(=O)[C@@]2(C)[C@H]([C@H](OC(=O)c3cccc(F)c3)[C@]3(O)C[C@H](OC(=O)[C@H](O)[C@@H](NC(=O)OC(C)(C)C)C(F)(F)F)C(C)=C1C3(C)C)[C@]1(OC(C)=O)CO[C@@H]1C[C@@H]2O | 0.39 | 15 |  | 5.81 | 0.31 | 4.88 | 16 | 0.61 | 0.85
COC(=O)O[C@H]1C(=O)[C@@]2(C)[C@H]([C@H](OC(=O)c3cccc(Cl)c3)[C@]3(O)C[C@H](OC(=O)[C@H](O)[C@@H](NC(=O)OC(C)(C)C)C(F)(F)F)C(C)=C1C3(C)C)[C@]1(OC(C)=O)CO[C@@H]1C[C@@H]2O | 0.29 | 18 |  | 5.08 | 0.65 | 4.72 | 7.3 | 0.43 | 0.68
CCC(=O)O[C@H]1C(=O)[C@@]2(C)[C@H]([C@H](OC(=O)c3cccc(N=[N+]=[N-])c3)[C@]3(O)C[C@H](OC(=O)[C@H](O)[C@@H](NC(=O)OC(C)(C)C)C(F)(F)F)C(C)=C1C3(C)C)[C@]1(OC(C)=O)CO[C@@H]1C[C@@H]2O | 1.09 | 2.3 |  | 2.56 | 0.38 | 1.61 | 4.2 | 0.2 | 0.4
CC(=O)O[C@H]1C(=O)[C@@]2(C)[C@H]([C@H](OC(=O)c3cccc(N=[N+]=[N-])c3)[C@]3(O)C[C@H](OC(=O)[C@H](O)[C@@H](NC(=O)OC(C)(C)C)C(F)(F)F)C(C)=C1C3(C)C)[C@]1(OC(C)=O)CO[C@@H]1C[C@@H]2O | 1.18 | 3.4 |  | 4 | 0.47 | 3.85 | 8.2 | 0.2 | 0.5
